# Assay results published in US9133207B2, “Tetrandrine derivatives with substituted 5-carbon, preparation method and use thereof” (Hangzhou Bensheng Pharmaceutical Co., Ltd., priority 2011, dated 2015).
# What was measured:
# [1] = tested on: Kasumi-1 (acute myeloid leukemia M2 type, AML-M2); assay: Leukemia cell growth inhibition, MTT, 72 h (Example 5); type: cell-based, human; conditions: Homo sapiens, Kasumi 1
# In short: (§1)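 6000 cells per well were seeded in RPMI 1640 with 10% FBS, exposed to graded concentrations of 5-substituted tetrandrine derivatives, and held 72 hours at 37° C, 5% CO2. Viable cell concentration was then measured by MTT.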
# [2] = tested on: H9 (acute lymphoblastic leukemia, ALL); assay: as above; type: cell-based, human; conditions: Homo sapiens; 72 h, MTT
# In short: as §1
# [3] = tested on: NB4 (acute promyelocytic leukemia, AML); assay: as above; type: cell-based, human; conditions: Homo sapiens; 72 h, MTT
# In short: as §1
# [4] = tested on: K562/adr (drug-resistant, chronic myeloid leukemia, CML); assay: as above; type: cell-based, human; conditions: Homo sapiens, K562/Adr; 72 h, MTT
# In short: as §1
# [5] = tested on: Jurkat (acute lymphoblastic leukemia, ALL); assay: as above; type: cell-based, human; conditions: Homo sapiens, Jurkat; 72 h, MTT
# In short: as §1
# [6] = tested on: RKO (human colon adenocarcinoma cell); assay: Solid tumor cell growth inhibition, MTT, 72 h (Example 7); type: cell-based; conditions: Homo sapiens; 72 h, MTT, RKO
# In short: (§2)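 A 72 h MTT assay: cells (4000/well, 24 h pre-culture in DMEM high glucose with 10% FBS at 37 °C, 5% CO2) were treated with graded concentrations of derivatives, and viability was calculated as % of untreated control.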
# [7] = tested on: CNE (nasopharyngeal carcinoma cell); assay: as above; type: cell-based; conditions: Homo sapiens
# In short: as §2
# [8] = tested on: Becap37 (human breast cancer cell); assay: as above; type: cell-based; conditions: Homo sapiens; 72 h, MTT, Becap-37
# In short: as §2
# A549 (human lung cancer) = assay: as above; type: cell-based; conditions: Homo sapiens; 72 h, MTT, A549
# In short: as §2
# [9] = tested on: MGC 803 (human gastric cancer cell); assay: as above; type: cell-based; conditions: Homo sapiens
# In short: as §2
# [10] = tested on: Hela (human cervical cancer cell); assay: as above; type: cell-based; conditions: Homo sapiens; 72 h, MTT, Hela
# In short: as §2
# [11] = tested on: SK-OV-3 (ovarian cancer cell); assay: as above; type: cell-based; conditions: Homo sapiens
# In short: as §2
# [12] = tested on: U87 MG (malignant glioma cell); assay: as above; type: cell-based; conditions: Homo sapiens, U-87 MG
# In short: as §2
# [13] = tested on: Huh7 (human liver cancer cell); assay: as above; type: cell-based; conditions: Homo sapiens; 72 h, MTT, Huh-7
# In short: as §2
# [14] = tested on: RPMI8226 (multiple myeloma); assay: Multiple myeloma cell growth inhibition, MTT, 72 h (Example 6); type: cell-based, human; conditions: Homo sapiens, RPMI-8226; 72 h, MTT, RPMI8226
# In short: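 RPMI8226 cells (6000 per well) in RPMI 1640 with 10% FBS were exposed to a range of tetrandrine derivative concentrations for 72 h at 37 °C under 5% CO2. Viable cell concentration was then measured by MTT.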
# PC-3 (prostate cancer) = assay: Solid tumor cell growth inhibition, MTT, 72 h (Example 7); type: cell-based, human; conditions: Homo sapiens; 72 h, MTT, PC-3
# In short: as §2
# [15] = tested on: Hep-2 (laryngeal carcinoma); assay: as above; type: cell-based, human; conditions: Homo sapiens; 72 h, MTT, Hep 2
# In short: as §2
# [16] = tested on: PANC-1 (pancreatic cancer); assay: as above; type: cell-based, human; conditions: Homo sapiens; 72 h, MTT, PANC-1
# In short: as §2
# [17] = tested on: CaES-17 (esophageal cancer cell); assay: as above; type: cell-based, human; conditions: Homo sapiens, CaEs17; 72 h, MTT, CAES-17
# In short: as §2
# MG63 (osteosarcoma) = assay: as above; type: cell-based, human; conditions: Homo sapiens; 72 h, MTT, MG-63
# In short: as §2
IC50 [1] [µg/mL],IC90 [1] [µg/mL],IC50 [2] [µg/mL],IC90 [2] [µg/mL],IC50 [3] [µg/mL],IC90 [3] [µg/mL],IC50 [4] [µg/mL],IC90 [4] [µg/mL],IC50 [5] [µg/mL],IC90 [5] [µg/mL],IC50 [6] [µg/mL],IC90 [6] [µg/mL],IC50 [7] [µg/mL],IC90 [7] [µg/mL],IC50 [8] [µg/mL],IC90 [8] [µg/mL],IC50 (A549 (human lung cancer)) [µg/mL],IC90 (A549 (human lung cancer)) [µg/mL],IC50 [9] [µg/mL],IC90 [9] [µg/mL],also measured,SMILES
0.48,2.55,0.91,1.78,0.8,1.9,0.49,3.02,0.94,5.75,0.69,1.71,2.8,6.6,1.4,4.5,4.4,16,1.78,6.73,IC50 [10]: 1.48 µg/mL; IC90 [10]: 4.31 µg/mL; IC50 [11]: 3.5 µg/mL; IC90 [11]: > 16 µg/mL; IC50 [12]: 0.57 µg/mL; IC90 [12]: 2.51 µg/mL; IC50 [13]: 0.81 µg/mL; IC90 [13]: 1.24 µg/mL; IC50 [14]: 0.08 µg/mL; IC90 [14]: 3.63 µg/mL; IC50 (PC-3 (prostate cancer)): 2.01 µg/mL; IC90 (PC-3 (prostate cancer)): 3.84 µg/mL; IC50 [15]: 3.51 µg/mL; IC90 [15]: 9.8 µg/mL; IC50 [16]: 2.6 µg/mL; IC90 [16]: 9.14 µg/mL; IC50 [17]: 2.25 µg/mL; IC90 [17]: 19.1 µg/mL; IC50 (MG63 (osteosarcoma)): 1.1 µg/mL; IC90 (MG63 (osteosarcoma)): 3.2 µg/mL,COc1ccc2cc1Oc1ccc(cc1)C[C@H]1c3cc(c(OC)cc3CCN1C)Oc1c(OC)c(OC)c(CN3CCCC(O)C3)c3c1[C@H](C2)N(C)CC3 (stereo partly shown) [BS-TE-321]
1.23,4.6,0.95,2.13,1.5,4.5,0.21,2.16,1.28,9,1.07,2.6,4.8,10.4,3.2,8,6.2,16,3.04,8,IC50 [10]: 1.2 µg/mL; IC90 [10]: 3.89 µg/mL; IC50 [11]: 8 µg/mL; IC90 [11]: > 16 µg/mL; IC50 [12]: 0.98 µg/mL; IC90 [12]: 4.02 µg/mL; IC50 [13]: 1.33 µg/mL; IC90 [13]: 3.88 µg/mL; IC50 [14]: 0.12 µg/mL; IC90 [14]: 3.88 µg/mL; IC50 (PC-3 (prostate cancer)): 1.88 µg/mL; IC90 (PC-3 (prostate cancer)): 3.83 µg/mL; IC50 [15]: 2.49 µg/mL; IC90 [15]: 5.59 µg/mL; IC50 [16]: 2.46 µg/mL; IC90 [16]: 7.1 µg/mL; IC50 [17]: 3.6 µg/mL; IC90 [17]: 23 µg/mL; IC50 (MG63 (osteosarcoma)): 2.6 µg/mL; IC90 (MG63 (osteosarcoma)): 5.5 µg/mL,COc1ccc2cc1Oc1ccc(cc1)C[C@H]1c3cc(c(OC)cc3CCN1C)Oc1c(OC)c(OC)c(CN3CCC(C#N)CC3)c3c1[C@H](C2)N(C)CC3 [BS-TE-323]
0.96,2.37,0.88,1.35,1.2,1.8,0.89,2.14,1.41,3.98,0.87,2.22,3.2,4.95,1.3,2,1.8,4.9,1.46,5.38,IC50 [10]: 1.9 µg/mL; IC90 [10]: 3.01 µg/mL; IC50 [11]: 1.91 µg/mL; IC90 [11]: 5.21 µg/mL; IC50 [12]: 0.75 µg/mL; IC90 [12]: 2.4 µg/mL; IC50 [13]: 1.15 µg/mL; IC90 [13]: 1.76 µg/mL; IC50 [14]: 0.27 µg/mL; IC90 [14]: 0.64 µg/mL; IC50 (PC-3 (prostate cancer)): 3.6 µg/mL; IC90 (PC-3 (prostate cancer)): 5.8 µg/mL; IC50 [15]: 3.62 µg/mL; IC90 [15]: 6.57 µg/mL; IC50 [16]: 1.63 µg/mL; IC90 [16]: 5.16 µg/mL; IC50 [17]: 2.5 µg/mL; IC90 [17]: 6.18 µg/mL; IC50 (MG63 (osteosarcoma)): 1.4 µg/mL; IC90 (MG63 (osteosarcoma)): 1.9 µg/mL,CNCc1c2c3c(c(OC)c1OC)Oc1cc4c(cc1OC)CCN(C)[C@H]4Cc1ccc(cc1)Oc1cc(ccc1OC)C[C@@H]3N(C)CC2 [BS-TE-326]
0.84,3.76,1.54,3.15,1.8,4.4,1.46,5.12,2.09,8,1.76,3,6.02,> 16,2,4,3.7,9.9,1.68,4,IC50 [10]: 2.49 µg/mL; IC90 [10]: 4.91 µg/mL; IC50 [11]: 6.8 µg/mL; IC90 [11]: > 16 µg/mL; IC50 [12]: 1.44 µg/mL; IC90 [12]: 5.39 µg/mL; IC50 [13]: 1.52 µg/mL; IC90 [13]: 3.7 µg/mL; IC50 [14]: 0.15 µg/mL; IC90 [14]: 0.96 µg/mL; IC50 (PC-3 (prostate cancer)): 3.07 µg/mL; IC90 (PC-3 (prostate cancer)): 4.98 µg/mL; IC50 [15]: 9.63 µg/mL; IC90 [15]: 15.9 µg/mL; IC50 [16]: 2.99 µg/mL; IC90 [16]: 7.15 µg/mL; IC50 [17]: 3.13 µg/mL; IC90 [17]: 12.2 µg/mL; IC50 (MG63 (osteosarcoma)): 2.1 µg/mL; IC90 (MG63 (osteosarcoma)): 3.9 µg/mL,COc1ccc2cc1Oc1ccc(cc1)C[C@H]1c3cc(c(OC)cc3CCN1C)Oc1c(OC)c(OC)c(CN3CCSCC3)c3c1[C@H](C2)N(C)CC3 [BS-TE-328]
